The assay has as its target T1, human PAD4 (Homo sapiens, UniProt Q9UM07).
T1 construct: human PAD4 (NM_012387), A2-P663, was PCR amplified; His-SUMO (N, cleaved yes); made in house; host or cells: E. coli BL21(DE3)
Description: In vitro PAD4 BAEE biochemical assay. Particulars: BAEE substrate 3 mM, 5 nM PAD4, 2 mM calcium chloride; geometric mean of multiple experiments. In short, it runs like this:
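Recombinant PAD4 (5 nM final) with 2 mM CaCl2 was preincubated with compound for 30 min at 25 °C in MOPS pH 7.6 buffer with DTT, then reacted with 3 mM BAEE for 2 h at 25 °C. Released ammonia was detected fluorimetrically with o-phthalaldehyde/DTT; IC50 from four-parameter fit, geometric mean of experiments.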

The values below come from patent publication US11976083B2, “Inhibitors of peptidylarginine deiminases” (Gilead Sciences, Inc., priority 2020, dated 2024).

For orientation: IC50 means the midpoint of a concentration-inhibition curve.

T1 sequence (Q9UM07 2-663): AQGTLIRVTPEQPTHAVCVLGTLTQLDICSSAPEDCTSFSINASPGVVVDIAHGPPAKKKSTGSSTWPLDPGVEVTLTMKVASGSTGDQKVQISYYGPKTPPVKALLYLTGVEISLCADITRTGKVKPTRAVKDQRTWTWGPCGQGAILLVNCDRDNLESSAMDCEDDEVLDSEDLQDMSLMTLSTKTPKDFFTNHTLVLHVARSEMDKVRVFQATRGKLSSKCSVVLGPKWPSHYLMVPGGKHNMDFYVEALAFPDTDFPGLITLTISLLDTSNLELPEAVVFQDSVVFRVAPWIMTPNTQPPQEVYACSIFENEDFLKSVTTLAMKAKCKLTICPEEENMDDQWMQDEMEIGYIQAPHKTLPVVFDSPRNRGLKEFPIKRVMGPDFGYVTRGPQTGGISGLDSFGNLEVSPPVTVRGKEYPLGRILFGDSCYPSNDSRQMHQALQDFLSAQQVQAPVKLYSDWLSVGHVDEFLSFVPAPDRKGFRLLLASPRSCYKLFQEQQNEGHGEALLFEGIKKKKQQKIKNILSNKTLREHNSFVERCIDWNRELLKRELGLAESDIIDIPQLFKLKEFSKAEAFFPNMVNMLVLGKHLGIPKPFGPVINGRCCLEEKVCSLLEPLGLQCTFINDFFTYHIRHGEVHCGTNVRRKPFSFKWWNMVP

Turning to `COc1cc(C(=O)N2CC[C@@H](OC(F)F)[C@@H](N)C2)cc2nc(-c3cc4ccc5cc4n3CCCCCc3nccnc3C(=O)N[C@@H]5C)n(C)c12` [Example 577, (2~{R})-17-[5-[(3~{S),4~{R})-3-amino-4-(difluoromethoxy)piperidine-1-carbonyl]-7-methoxy-1-methyl-benzimidazol-2-yl]-2-methyl-3,6,9,16-tetrazatetracyclo [14.5.2.0^{5,10}.0^{19, 23}]tricosa-1(22),5(10), 6,8,17,19(23),20-heptaen-4-one], the concentration for half-maximal inhibition (IC50) was 84 nM.

With `COc1cc(C(=O)N2C[C@H](N)[C@@H]3CC[C@H]2C3)cc2nc(-c3cc4ccc5nc4n3CCCCCc3cc(F)cc(F)c3C(=O)N[C@@H]5C)n(C)c12` [Example 935, (2~{R})-17-[5-[(1~{S),4~{R},5~ {R})-4-amino-2-azabicyclo[3.2.1]octane-2-carbonyl]-7-methoxy-1-methyl-benzimidazol-2-yl]-6,8-difluoro-2-methyl-3,16,22-triazatetracyclo[14.5.2.0^ {5,10}.0^{19,23}]tricosa-1(21),5(10),6,8,17,19,22-heptaen-4-one], the IC50 was determined as 29 nM.

For `COc1cc(C(=O)N[C@H]2CNCC[C@@H]2F)cc2nc(-c3cc4ccc5nc4n3CCCCC[C@H]3CC[C@@H]3C(=O)N[C@@H]5C)n(C)c12` (single isomer, unassigned) [Example 486, ˜{N}-[(3˜{S},4˜{S})-4-fluoro-3-piperidyl]-7-methoxy-1-methyl-2-[(2˜{R},5˜{S},8˜{S})-2-methyl-4-oxo-3,14,20-triazatetracyclo[12.5.2.0^{5,8}.0^{17,21}]henicosa-1(20),15,17(21),18-tetraen-15-yl]benzimidazole-5-carboxamide], the half-maximal inhibitory concentration (IC50) came out at 110 nM.

`COc1cc(C(=O)N2C[C@H](N)[C@@H]3CC[C@H]2C3)cc2nc(-c3cc4ccc5nc4n3CCCCC[C@@]3(F)C[C@]3(C)C(=O)N[C@@H]5C)n(C)c12` [Example 915, (2~{R},5~{R},7~{R})-14-[5-[(1~{S},4~{R},5~{R})-4-amino-2-azabicyclo[3.2.1]octane-2-carbonyl]-7-methoxy-1-methyl-benzimidazol-2-yl]-7-fluoro-2,5-dimethyl-3,13,19-triazatetracyclo[11.5.2.0^ {5,7}.0^{16,20}]icosa-1(19),14,16(20),17-tetraen-4-one]: the IC50 worked out at 47 nM.

Turning to `COc1cc(C(=O)N2C[C@H](N)[C@@H]3CC[C@H]2C3)cc2nc(-c3cc4ccc5nc4n3CC(F)(F)CCC[C@]3(F)C[C@H]3C(=O)N[C@@H]5C)n(C3CC3)c12` [Example 769, (2~{R},5~{S},7~{S})-14-[5-[(1~{S},4~{R},5~{R})-4-amino-2-azabicyclo[3.2.1]octane-2-carbonyl]-1-cyclopropyl-7-methoxy-benzimidazol-2-yl]-7,11,11-trifluoro-2-methyl-3,13,19-triazatetracyclo [11.5.2.0^{5,7}.0^{16,20}] icosa-1(19),14,16(20), 17-tetraen-4-one], the IC50 was 13 nM.

In the case of `COc1cc(C(=O)N2CCC[C@@H](N)[C@H]2C)cc2nc(-c3cc4ccc5nc4n3CC(F)(F)CCC[C@@H]3C[C@H]3C(=O)N[C@@H]5C)n(C)c12` [Example 852, (2~{R},5~{R},7~{R})-14-[5-[(2~{R},3~{R})-3-amino-2-methyl-piperidine-1-carbonyl]-7-methoxy-1-methyl-benzimidazol-2-yl]-11,11-difluoro-2-methyl-3,13,19-triazatetracyclo[11.5.2.0^ {5,7).0^{16,20}]icosa-1(19), 14,16(20),17-tetraen-4-one], the IC50 worked out at 16 nM.

Consider `COc1cc(C(=O)N2C[C@H](N)[C@@H]3CC[C@H]2C3)cc2nc(-c3cc4ccc5nc4n3CCCCCc3c(F)cc(F)cc3C(=O)N[C@@H]5C)n(C)c12` [Example 894, (2~{R})-17-[5-[(1~{S},4~ {R},5~{R})-4-amino-2-azabicyclo[3.2.1]octane-2-carbonyl]-7-methoxy-1-methyl-benzimidazol-2-yl]-7,9-difluoro-2-methyl-3,16,22-triazatetracyclo [14.5.2.0^{5,10).0^{19,23}] tricosa-1(22),5(10),6,8,17, 19(23),20-heptaen-4-one], for which the IC50 came out at 72 nM.

Consider `COc1cc(C(=O)N[C@H]2CNCC[C@@H]2F)cc2nc(-c3cc4ccc5nc4n3CCCCCc3cccc(F)c3C(=O)N[C@@H]5C)n(C)c12` [Example 345, 2-[(2~{R})-6-fluoro-2-methyl-4-oxo-3,16,22-triazatetracyclo[14.5.2.0^{5,10}.0^{19,23)]tricosa-1(22),5,7,9,17,19(23),20-heptaen-17-yl]-~{N}-[(3~{S},4~{S})-4-fluoro-3-piperidyl]-7-methoxy-1-methyl-benzimidazole-5-carboxamide], for which the 50% inhibitory concentration (IC50) was determined as 60 nM.

Take `C[C@H]1NC(=O)c2c(ccnc2C2CC2)CCCCCn2c(-c3nc4cc(C(=O)N5C[C@H](N)[C@@H]6CC[C@H]5C6)cc(F)c4n3C3CC3)cc3ccc1nc32` [Example 671, (2~{R})-17-[5-[(1~{S),4~ {R},5~{R})-4-amino-2-azabicyclo[3.2.1]octane-2-carbonyl]-1-cyclopropyl-7-fluoro-benzimidazol-2-yl]-6-cyclopropyl-2-methyl-3,7,16,22-tetrazatetracyclo [14.5.2.0^{5,10}.0^{19,23}] tricosa-1(22),5(10),6,8,17, 19(23),20-heptaen-4-one]: the IC50 was found to be 20 nM.

Regarding `COc1cc(C(=O)N2C[C@H](N)[C@@H]3CC[C@H]2C3)cc2nc(-c3cc4ccc5nc4n3CC(F)(F)CCC[C@@H]3C[C@H]3C(=O)N[C@@H]5C)n(C3CC3)c12` [Example 766, (2~{R},5~{R},7~{R})-14-[5-[(1~{S},4~{R},5~{R})-4-amino-2-azabicyclo[3.2.1]octane-2-carbonyl]-1-cyclopropyl-7-methoxy-benzimidazol-2-yl]-11,11-difluoro-2-methyl-3,13,19-triazatetracyclo [11.5.2.0^{5,7}.0^{16,20}] icosa-1(19),14,16(20),17-tetraen-4-one], the IC50 worked out at 28 nM.

Consider `COc1cc(C(=O)N2CC[C@@H](OC)[C@@H](N)C2)cc2nc(-c3cc4ccc5nc4n3CCCCCC[C@](C)(c3ccccn3)C(=O)N[C@@H]5C)n(C)c12` [Example 861, (8~{R},11~{R})-17-[5-[(3~ {S},4~{R})-3-amino-4-methoxy-piperidine-1-carbonyl]-7-methoxy-1-methyl-benzimidazol-2-yl]-8,11-dimethyl-8-(2-pyridyl)-1,10,19-triazatricyclo[10.5.2.0^{15,18}] nonadeca-12(19),13,15(18), 16-tetraen-9-one], for which the IC50 came to 39 nM.

`C[C@H]1NC(=O)[C@@H]2C[C@H]2CCCC(F)(F)Cn2c(-c3nc4cc(C(=O)N[C@H]5CNCC[C@@H]5F)c(F)c(F)c4n3C3CC3)cc3ccc1nc32` [Example 189, 1-cyclopropyl-2-[(2~{R},5~{R},7~{R})-11,11-difluoro-2-methyl-4-oxo-3,13,19-triazatetracyclo[11.5.2.0^{5,7}.0^{16,20}]icosa-1(19),14,16(20),17-tetraen-14-yl]-6,7-difluoro-~{N}-[(3~{S},4~{S})-4-fluoro-3-piperidyl]benzimidazole-5-carboxamide]: the IC50 was determined as 33 nM.

`COc1cc(C(=O)N2C[C@@H]3C[C@@H]3[C@@H](N)C2)cc2nc(-c3cc4ccc5nc4n3CCCCCCC(C)(C)C(=O)N[C@@H]5C)n(C)c12` [Example 542, (11~{R})-17-[5-[(1~ {R},5~{R},6~{S})-5-amino-3-azabicyclo [4.1.0]heptane-3-carbonyl]-7-methoxy-1-methyl-benzimidazol-2-yl]-8,8,11-trimethyl-1,10,19-triazatricyclo [10.5.2.0^{15,18}]nonadeca-12(19),13,15(18), 16-tetraen-9-one]: the half-maximal inhibitory concentration (IC50) came out at 479 nM.

With `C[C@H]1NC(=O)[C@@]2(C)C[C@@H]2CCCC(F)(F)Cn2c(-c3nc4cc(C(=O)N[C@H]5CNCC[C@@H]5F)c(F)cc4n3C)cc3ccc1nc32` [Example 549, 2-[(2~{R},5~{S},7~ {S})-11,11-difluoro-2,5-dimethyl-4-oxo-3,13,19-triazatetracyclo [11.5.2.0^{5,7).0^ {16,20}]icosa-1(19), 14,16(20),17-tetraen-14-yl]-6-fluoro-~{N}-[(3~ {S},4~{S})-4-fluoro-3-piperidyl]-1-methyl-benzimidazole-5-carboxamide], the IC50 was 129 nM.

Consider `COc1cc(C(=O)N2CCC[C@@H](N)C2)cc2nc(-c3cc4ccc5nc4n3CCCCCCNc3ncccc3-5)n(C)c12` [Example 50, [(3~{R})-3-amino-1-piperidyl]-[7-methoxy-1-methyl-2-(6,8,15,21-tetrazatetracyclo[13.5.2.0^{2,7}.0^{18,22}]docosa-1(21),2,4,6,16,18(22),19-heptaen-16-yl)benzimidazol-5-yl]methanone], for which the IC50 came to 10000 nM.

`COc1cc(C(=O)N2C[C@H](N)[C@@H]3CC[C@H]2C3)cc2nc(-c3cc4ccc5nc4n3CCCCC[C@H]3[C@H](C(=O)N[C@@H]5C)C3(F)F)n(C)c12` [Example 757, (2~{R},5~{R},7~{S})-14-[5-[(1~{S},4~{R},5~{R})-4-amino-2-azabicyclo[3.2.1]octane-2-carbonyl]-7-methoxy-1-methyl-benzimidazol-2-yl]-6,6-difluoro-2-methyl-3,13,19-triazatetracyclo[11.5.2.0^ {5,7}.0^{16,20}]icosa-1(19), 14,16(20),17-tetraen-4-one]: the IC50 came to 5 nM.

In the case of `COc1cc(C(=O)N2C[C@H](N)[C@@H]3CC[C@H]2C3)cc2nc(-c3cc4ccc5nc4n3CCCCCc3nc(C(F)(F)F)ccc3C(=O)N[C@@H]5C)n(C3CC3)c12` [Example 847, (2~{R})-17-[5-[(1~{S},4~{R}, 5~{R})-4-amino-2-azabicyclo [3.2.1]octane-2-carbonyl]-1-cyclopropyl-7-methoxy-benzimidazol-2-yl]-2-methyl-8-(trifluoromethyl)-3,9,16,22-tetrazatetracyclo[14.5.2.0^ {5,10}.0^{19,23}]tricosa-1(22),5(10),6,8,17,19(23),20-heptaen-4-one], the IC50 is 82 nM.
